# Results reported in patent US20250000858A1, “FGFR TYROSINE KINASE INHIBITORS FOR THE TREATMENT OF ADVANCED SOLID TUMORS” (JANSSEN PHARMACEUTICA NV, priority 2021, published 2025).
# Assay: Pharmacokinetic assessments (plasma concentrations, erdafitinib exposure; CYP2C9*3/*3 genotype)
# Assay type: in vivo, human
# Conditions: subjects with the CYP2C9*3/*3 genotype; 'may increase'
# Text: Therefore, increased adverse reactions are monitored in subjects who are known or suspected to have CYP2C9*3/*3 genotype.
compound,measurement,value
"COc1cc(OC)cc(N(CCNC(C)C)c2ccc3ncc(-c4cnn(C)c4)nc3c2)c1 [erdafitinib, N-(3,5-dimethoxy-phenyl)-N′-(1-methylethyl)-N-[3-(1-methyl-1H-pyrazol-4-yl)quinoxalin-6-yl]ethane-1,2-diamine]",increase of exposure of erdafitinib,50%
